Measurements reported in patent US11787764B2, “Heptamethine cyanines for use as fluorescent markers of the biliary and renal systems” (CHILDREN'S NATIONAL MEDICAL CENTER, priority 2018, dated 2023).

Columns and labels:
Sprague-Dawley rats = details: rat, in vivo, iv, 90 ug/kg
[1] = Quantum yield measurement
Method: Fluorescence traces were recorded on a PTI QuantaMaster steady-state spectrofluorimeter operated by FelixGX 4.2.2 software, with 5 nm excitation and emission slit widths, 0.1 s integration rate, and enabled emission correction.

Structure (SMILES) | excretion into bile / biliary clearance (in words) (Sprague-Dawley rats) | quantum yield [1]
CN(CCOC1=C(/C=C/C2=[N+](CCCCS(=O)(=O)[O-])c3ccccc3C2(C)C)CCC/C1=C\C=C1\N(CCCCS(=O)(=O)O)c2ccccc2C1(C)C)C(=O)CCCC(=O)O [FNIR-Ar-H_N-BS] | excellent biliary clearance | –
CC1(C)C(/C=C/C=C/C=C/C=C2\N(CCCCS(=O)(=O)O)c3ccc4ccccc4c3C2(C)C)=[N+](CCCCS(=O)(=O)[O-])c2ccc3ccccc3c21 [ICG, indocyanine green] | – | 9%
CC1(C)C(=CC=C2CCCC(C=CC3=[N+](CCCCCC(=O)[O-])c4ccc(S(=O)(=O)[O-])cc4C3(C)C)=C2Oc2ccc(S(=O)(=O)[O-])cc2)N(CCCCS(=O)(=O)[O-])c2ccc(S(=O)(=O)[O-])cc21.[Na+].[Na+].[Na+].[Na+] [IRDye® 800CW] | excretes rapidly into bile | –
